According to US10266857B2, “Method for producing Nε-acyl-L-lysine” (AJINOMOTO CO., INC., priority 2015, dated 2019):

B1: RmELA: amidohydrolase native to Rhodothermus marinus (NCBI; WP_012844854.1, SEQ ID NO: 1), Nε-acyl-L-lysine-specific aminoacylase (protein, listed as Rhodothermus marinus)
chain: MLLLPMQARGQADYVLVNGRLYTVDPAQPVAEAMAVRGDRILMVGTTAQLTAAYPDAPHIDLQGRAVVPGFIDAHAHLMGLGLSRLRADLTGTRSVEEILERLREFARQLPEGAWLLGRGWDQNDWPVKEFPTRQMLDEIFPERPVWLVRIDGHAAWANTAAIRRANPALLTEQIPDPEGGHIVRDAEGRLTGVFIDEAMDLIARHIPPPSEAELEEALRRAVAEANRFGLTGVHDAGASLKTIQGYRRAVDDGTLTLRLYVMVDGLGEAFDYFCEHGPLLDYGGRLTVRSVKFYIDGALGSRGAALLADYSDDPGNRGLLRHEPEVFADMVQRAMKCGFQVNTHAIGDRGVRVVLDAYEKALRTLGRTVGRHRVEHAQVVAPEDFARFAELDLIASMQPTHATSDMYWAEDRLGPERVRGAYAWRTFLEHGVRLAFGSDFPVELANPLLGFYAAITRQDAEGWPEGGWYPEQRLTREEALRAFTLDAAYAAFQEHELGSLTPGKYADFVVLSHDIMTVPPEQILQTRVLATFFGGRCVYHDPEAAGLCPASP

Key:
RmELA = assay: Acyl lysine hydrolysis (substrate specificity of purified RmELA); format: biochemical, Rhodothermus marinus; conditions: for hydrolysis (degradation) activity of the enzyme for the acyl lysine, in words: 4 mM substrate, pH 7.0, 37° C.; for Hydrolysis activity: acyl lysine 4 mM, 100 mM Tris-HCl (pH 7.0), 37° C., 1 U = 1 μmol lysine per 1 minute
Description: To look into the substrate specificity of the acyl lysine hydrolysis of this enzyme, the reactivity of the enzyme as described herein for various kinds of acyl lysines was examined. […] Activity measurement was performed with the various kinds of acyl lysines (4 mM) and 100 mM Tris-HCl (pH 7.0) at 37° C., and the activity was calculated by measuring the concentration of lysine produced along with the degradation of the acyl lysines. For the measurement of L-lysine, BF-5 and a lysine electrode (manufactured by Oji Scientific Instruments Co., Ltd.) was used, whereas for the measurement of D-lysine, an amino acid analyzer (manufactured by Hitachi, Ltd.) was used. Here, 1 U was defined as an enzyme amount that releases 1 μmol lysine from each of the acyl lysines (per 1 minute).

[1] = Synthesis reaction of Nε-dodecanoyl-L-lysine, L-lysine consumption; format: biochemical; conditions: 300 mmol/L substrates, 3 U/ml, after 24 hours
Description: Using the RmELA enzymatic solution prepared by the method described in Example 7, the synthesis reaction of Nε-dodecanoyl-L-lysine was carried out. A 200 ml of a reaction solution was prepared so as to give final concentrations of 300 mmol/L dodecanoic acid, 300 mmol/L L-lysine hydrochloride, 0.1 mmol/L ZnSO4, 10% methanol, and 3 U/ml the RmELA enzymatic solution and was stirred at 300 rpm using a 500 ml jar fermenter. The pH was adjusted to be 7.0 using 1 N of NaOH, and the reaction temperature was adjusted to be 55° C.
Nα-dodecanoyl-L-lysine was produced by only 0.06% in terms of yield relative to L-lysine.
For the measurement of lysine, BF-5 and a lysine electrode (manufactured by Oji Scientific Instruments Co., Ltd.) were used. The HPLC analysis was performed with Column YMC-UltraHT Pro C18, 50×2.0 mm I.D. (manufactured by YMC Co., Ltd.), a mobile layer of NaH2PO4 (pH 3.0)/MeOH=3/7, and UV 210 nm.
When the reaction pH was changed from pH 7.0 to pH 6.0, and the synthesis reaction of Nε-dodecanoyl-L-lysine was carried out by a method similar to the above, 96% of the charged L-lysine was consumed after 24 hours (FIG. 7). […] At pH 7.0, dodecanoic acid in the reaction solution was emulsified to give a high viscosity solution. […]

[2] = Enzyme activity after heat sterilization of the culture solution; format: biochemical; conditions: 75° C. for 30 minutes
Description: Whether a C. glutamicum expression strain of RmELA could be sterilized with heat while maintaining the enzyme activity was examined. The culture solution acquired by the method described in Example 1, 1-6) in an amount of 150 μl was dispensed to a PCR tube and was subjected to heat treatment at 75° C. for 30 minutes using a block heater to obtain a heat treatment culture solution. The heat treatment culture solution and the heat treatment culture solution serially diluted (with a dilution rate of ×10^2) with a physiological saline solution (0.85% of NaCl) were applied to a CM2G agar medium (10 g of a yeast extract, 10 g of polypeptone, 5 g of glucose, 5 g of sodium chloride, 0.2 g of DL-methionine, 15 g of agar, pH 7.2, and filled up to 1 L with water) containing 25 mg/l of kanamycin, and the number of formed colonies was counted to examine the number of living bacteria of the RmELA expression strain. As a result, no colony formation was detected. […] When a culture solution without the heat treatment was examined by the same method, the number of living bacteria was 7.0×10^10 cfu/ml.
Subsequently, the culture solution and the heat treatment culture solution explained above were centrifuged individually, the supernatants were collected, and the hydrolysis activity of Nε-acetyl-L-lysine within the supernatants was measured.

[3] = Storage stability of enzymatic solutions; format: biochemical; conditions: stored at 4° C., 15° C. and 25° C.
Description: A culture solution of the C. glutamicum expression strain of RmELA acquired by the method described in Example 1, 1-6) was centrifuged to collect the supernatant, which was membrane-sterilized with a 0.45 μm filter to obtain an RmELA enzymatic solution. A WDK010/pPKT-tatABC strain (WO 2010/067871) as a C. glutamicum expression strain of ELA native to Streptomyces mobarensis (SmELA) was cultured and sterilized by a similar procedure to obtain an SmELA enzymatic solution.
These enzymatic solutions were stored at temperatures of 4° C., 15° C., and 25° C., and the transition of enzyme activity was examined. The activity was represented as relative activity (%) with the activity value when the storage started as 100.

Optimum pH of the enzyme = format: biochemical; conditions: 37° C., acetate, Tris-HCl and borate buffers, pH 4.2 to 9.8
Description: Using the purified enzyme acquired by the method described in Example 3, the optimum pH and pH stability of the enzyme with Nε-acetyl-L-lysine as a substrate were examined.
Using various kinds of buffers (pH 4.2 to 6.0: acetate buffers, pH 7.2 to 8.8: Tris-HCl buffers, and pH 9.3 to 9.8: borate buffers) at 37° C., activity at various pH was measured. The activity was represented as relative activity (%) with the maximum activity value as 100. The optimum pH of this enzyme was pH 5.0.

[4] = Synthesis reaction of Nε-octanoyl-L-lysine by RmELA enzymatic solution, L-lysine consumption; format: biochemical
Description: Using the RmELA enzymatic solution prepared by the method described in Example 7, the synthesis reaction of Nε-octanoyl-L-lysine was carried out. A 100 ml of a reaction solution was prepared so as to give final concentrations of 300 mmol/L octanoic acid, 300 mmol/L L-lysine hydrochloride, 0.1 mmol/L ZnSO4, and 2.1 U/ml the RmELA enzymatic solution and was stirred at 300 rpm using a 200 ml jar fermenter. The pH was adjusted to be 7.0 using 1 N of NaOH, and the reaction temperature was adjusted to be 50° C.
During the reaction, the reaction solution was sampled over time, and an L-lysine concentration within the reaction solution was measured. […] When the reaction solution after 23 hours was analyzed by HPLC, Nε-octanoyl-L-lysine was produced by 80% in terms of yield relative to L-lysine. […] No peak of Nα-octanoyl-L-lysine was detected.
The substrate (octanoic acid and L-lysine hydrochloride) final concentration in the reaction condition was changed to (1) 500 mmol/L, (2) 750 mmol/L, and (3) 1,000 mmol/L to carry out the synthesis reaction of Nε-octanoyl-L-lysine.
During the reaction, the reaction solution was sampled over time, and an L-lysine concentration in the reaction solution was measured. […] Respective consumption rates relative to the charged L-lysine and reaction times were (1) 87% after 35 hours, (2) 92% after 35 hours, and (3) 94% after 57 hours.

[5] = format: biochemical; conditions: incubated at 30° C. to 100° C. for 1 hour
Description: Using the purified enzyme acquired by the method described in Example 3, the optimum reaction temperature and temperature stability of the enzyme with Nε-acetyl-L-lysine as a substrate were examined.
Subsequently, remaining activity after being incubated at certain temperatures (30° C. to 100° C.) for 1 hour was measured. The activity was represented as relative activity (%) with the activity value before the incubation as 100.

Molecule | hydrolysis (degradation) activity of the enzyme for the acyl lysine, in words (RmELA) | Hydrolysis activity (RmELA) | other results
CC(=O)NCCCC[C@H](N)C(=O)O [Nε-Acetyl-L-Lys, Nε-acetyl-L-lysine] | exhibited degradation activity | 17.5 U/mg | –
CC(=O)NCCCC[C@@H](N)C(=O)O [Nε-Acetyl-D-Lys, Nε-acetyl-D-lysine] | did not exhibit hydrolysis activity | 0.0 U/mg | –
NCCCC[C@H](NC(=O)c1ccccc1)C(=O)O [Nα-Benzoyl-L-Lys, Nα-benzoyl-L-lysine] | did not exhibit hydrolysis activity | 0.0 U/mg | –
N[C@@H](CCCCNC(=O)CC[C@H](N)C(=O)O)C(=O)O [Nε-(γGlu)-L-Lys] | – | 41.3 U/mg | –
N[C@@H](CCCCNC(=O)[C@@H](N)CCC(=O)O)C(=O)O [Nε-(αGlu)-L-Lys] | – | 36.8 U/mg | –
CC(=O)N[C@@H](CCCCN)C(=O)O [Nα-Acetyl-L-Lys, Nα-acetyl-L-lysine] | did not exhibit hydrolysis activity | 0.0 U/mg | –
N[C@@H](CCCCNC(=O)c1ccccc1)C(=O)O [Nε-Benzoyl-L-Lys, Nε-benzoyl-L-lysine] | exhibited degradation activity | 90.1 U/mg | –
B1 | – | – | charged L-lysine consumed ([1]; pH 6.0, 55° C.): 96%; charged L-lysine consumed ([1]; pH 7.0, 55° C.): 98%; enzyme activity after heat treatment [2]: no decrease in enzyme activity; transition of enzyme activity during storage [3]: did not decrease in enzyme activity; optimum pH (Optimum pH of the enzyme): 5.0; optimum pH (Optimum pH of the enzyme; listed as protein having the amino acid sequence of SEQ ID NO: 1): about 5; charged L-lysine consumed ([4]; 300 mmol/L substrates, 2.1 U/ml, pH 7.0, 50° C., after 23 hours): 80%; consumption rate relative to the charged L-lysine ([4]; substrate 500 mmol/L, after 35 hours): 87%; consumption rate relative to the charged L-lysine ([4]; substrate 750 mmol/L, after 35 hours): 92%; consumption rate relative to the charged L-lysine ([4]; substrate 1,000 mmol/L, after 57 hours): 94%; temperature up to which no decrease in activity was shown [5]: up to 80 °C
